How the values were obtained:
Assay in all cases: Post-emergence test on weeds
Assay type in all cases: in vivo
Parameters in all cases: key: Level 10: completely dead; Level 9: growth control rate greater than or equal to 90% and less than 100%; Level 8: growth control rate greater than or equal to 80% and less than 90%; Level 7: growth control rate greater than or equal to 70% and less than 80%; Level 6: growth control rate greater than or equal to 60% and less than 70%; Level 5: growth control rate greater than or equal to 50% and less than 60%; Level 4: growth control rate greater than or equal to 40% and less than 50%; Level 3: growth control rate greater than or equal to 30% and less than 40%; Level 2: growth control rate greater than or equal to 20% and less than 30%; Level 1: growth control rate less than 20%; Level 0: no effect
Conditions in all cases: 3 weeks after application, fresh weight control rate
[1] = system: Veronica polita
Description: (§1) The activity level criteria for plant damage (i.e., growth control rate) are as follows: • Level 10: completely dead; • Level 9: growth control rate greater than or equal to 90% and less than 100%; • Level 8: growth control rate greater than or equal to 80% and less than 90%; • Level 7: growth control rate greater than or equal to 70% and less than 80%; • Level 6: growth control rate greater than or equal to 60% and less than 70%; • Level 5: growth control rate greater than or equal to 50% and less than 60%; • Level 4: growth control rate greater than or equal to 40% and less than 50%; • Level 3: growth control rate greater than or equal to 30% and less than 40%; • Level 2: growth control rate greater than or equal to 20% and less than 30%; • Level 1: growth control rate less than 20%; • Level 0: no effect.
(§2) The above growth control rates are fresh weight control rates.
(§3) Monocotyledonous and dicotyledonous weed seeds (Descurainia sophia, Capsella bursa-pastoris, Abutilon theophrasti, Galium spurium, Stellaria media, Lithospermum arvense, Rorippa indica, Alopecurus aequalis, Alopecurus japonicus, Eleusine indica, Beckmannia syzigachne, Sclerochloa dura, Erigeron canadensis, Phleum paniculatum, Veronica polita, Bromus japonicus, Aegilops tauschii, Phalaris arundinacea, Amaranthus retroflexus, Chenopodium, Commelina communis, Cichorium endivia, Convolvulus arvensis, Cirsium arvense, Solanum nigrum, Acalypha australis, Digitaria sanguinalis, Echinochloa crus-galli, Setaria viridis, Setaria pumila, Leptochloa chinensis, Monochoria vaginalis, Sagittaria trifolia, Schoenoplectiella juncoides, Cyperus rotundus, Cyperus iria, Cyperus difformis, Fimbristylis, Portulaca oleracea, Xanthium sibiricum, Ipomoea nil, Eschenbachia japonica, etc.) and major crop seeds (wheat, maize, paddy rice, soybean, cotton, oilseed rape, millet, sorghum, potato, sesame, castor plant, etc.) were placed in plastic pots filled with soil and then covered with 0.5-2 cm of soil to allow them to grow in a favorable greenhouse environment. Two weeks after sowing, the test plants were treated at the stage of 2-3 leaves. The test compounds of the present invention were individually dissolved with acetone, then added with Tween® 80, with 1.5 L/ha of methyl oleate emulsifiable concentrate as a synergist, diluted into solutions of certain concentrations using certain amount of water, and sprayed to the plants using a spray tower. After drug application, the experimental results on weeds were collected after 3 weeks of cultivation in a greenhouse. The compounds were applied at 500, 250, 125, 60, 15, and 7.5 g a.i./ha in triplicate, and the results were averaged.

[2] = system: Echinochloa crus-galli
Description: as §1, §2, §3

[3] = system: Abutilon theophrasti
Description: as §1, §2, §3

[4] = system: Setaria viridis
Description: as §1, §2, §3

[5] = system: Digitaria sanguinalis
Description: as §1, §2, §3

[6] = system: Amaranthus retroflexus
Description: as §1, §2, §3

CC1(C(=O)O/N=C/c2ccco2)CC(c2cc(-c3ncc(C(F)(F)F)cc3Cl)c(F)cc2Cl)=NO1 (stereo not drawn) [Compound 72]
10: activity level (growth control rate) Veronica polita ([1]; 60 g a.i./ha) | activity level (growth control rate) Echinochloa crus-galli ([2]; 60 g a.i./ha) | activity level (growth control rate) Abutilon theophrasti ([3]; 60 g a.i./ha) | activity level (growth control rate) Setaria viridis ([4]; 60 g a.i./ha) | activity level (growth control rate) Digitaria sanguinalis ([5]; 60 g a.i./ha) | activity level (growth control rate) Amaranthus retroflexus ([6]; 60 g a.i./ha)

CSCOC(=O)C1(C)CC(c2cc(-c3ncc(C(F)(F)F)cc3Cl)c(F)cc2Cl)=NO1 (stereo not drawn) [Compound 50]
10: activity level (growth control rate) Veronica polita ([1]; 15 g a.i./ha) | activity level (growth control rate) Echinochloa crus-galli ([2]; 15 g a.i./ha) | activity level (growth control rate) Abutilon theophrasti ([3]; 15 g a.i./ha) | activity level (growth control rate) Setaria viridis ([4]; 15 g a.i./ha) | activity level (growth control rate) Digitaria sanguinalis ([5]; 15 g a.i./ha) | activity level (growth control rate) Amaranthus retroflexus ([6]; 15 g a.i./ha)

CC(C)=NOC(=O)C1(C)CC(c2cc(-c3ncc(C(F)(F)F)cc3Cl)c(F)cc2Cl)=NO1 (stereo not drawn) [Compound 65]
10: activity level (growth control rate) Veronica polita ([1]; 15 g a.i./ha) | activity level (growth control rate) Echinochloa crus-galli ([2]; 15 g a.i./ha) | activity level (growth control rate) Abutilon theophrasti ([3]; 15 g a.i./ha) | activity level (growth control rate) Setaria viridis ([4]; 15 g a.i./ha) | activity level (growth control rate) Digitaria sanguinalis ([5]; 15 g a.i./ha) | activity level (growth control rate) Amaranthus retroflexus ([6]; 15 g a.i./ha)

CCO/C(C)=N/OC(=O)C1(C)CC(c2cc(-c3ncc(C(F)(F)F)cc3Cl)c(F)cc2Cl)=NO1 (stereo not drawn) [Compound 69]
10: activity level (growth control rate) Veronica polita ([1]; 60 g a.i./ha) | activity level (growth control rate) Echinochloa crus-galli ([2]; 60 g a.i./ha) | activity level (growth control rate) Abutilon theophrasti ([3]; 60 g a.i./ha) | activity level (growth control rate) Setaria viridis ([4]; 60 g a.i./ha) | activity level (growth control rate) Digitaria sanguinalis ([5]; 60 g a.i./ha) | activity level (growth control rate) Amaranthus retroflexus ([6]; 60 g a.i./ha)

C/C(=N\OC(=O)C1(C)CC(c2cc(-c3ncc(C(F)(F)F)cc3Cl)c(F)cc2Cl)=NO1)C(F)(F)F (stereo not drawn) [Compound 67]
10: activity level (growth control rate) Veronica polita ([1]; 60 g a.i./ha) | activity level (growth control rate) Echinochloa crus-galli ([2]; 60 g a.i./ha) | activity level (growth control rate) Abutilon theophrasti ([3]; 60 g a.i./ha) | activity level (growth control rate) Setaria viridis ([4]; 60 g a.i./ha) | activity level (growth control rate) Digitaria sanguinalis ([5]; 60 g a.i./ha) | activity level (growth control rate) Amaranthus retroflexus ([6]; 60 g a.i./ha)

CC(C#N)OC(=O)C1(C)CC(c2cc(-c3ncc(C(F)(F)F)cc3Cl)c(F)cc2Cl)=NO1 (stereo not drawn) [Compound 51]
10: activity level (growth control rate) Veronica polita ([1]; 15 g a.i./ha) | activity level (growth control rate) Echinochloa crus-galli ([2]; 15 g a.i./ha) | activity level (growth control rate) Abutilon theophrasti ([3]; 15 g a.i./ha) | activity level (growth control rate) Setaria viridis ([4]; 15 g a.i./ha) | activity level (growth control rate) Digitaria sanguinalis ([5]; 15 g a.i./ha) | activity level (growth control rate) Amaranthus retroflexus ([6]; 15 g a.i./ha)

CCOC(=O)C1(C)CC(c2cc(-c3ncc(OC)cc3Cl)c(F)cc2Cl)=NO1 (stereo not drawn) [Compound 102]
10: activity level (growth control rate) Veronica polita ([1]; 60 g a.i./ha) | activity level (growth control rate) Echinochloa crus-galli ([2]; 60 g a.i./ha) | activity level (growth control rate) Abutilon theophrasti ([3]; 60 g a.i./ha) | activity level (growth control rate) Setaria viridis ([4]; 60 g a.i./ha) | activity level (growth control rate) Digitaria sanguinalis ([5]; 60 g a.i./ha) | activity level (growth control rate) Amaranthus retroflexus ([6]; 60 g a.i./ha)

CC1(C(=O)OC2CCCC2)CC(c2cc(-c3ncc(C(F)(F)F)cc3Cl)c(F)cc2Cl)=NO1 (stereo not drawn) [Compound 43]
10: activity level (growth control rate) Veronica polita ([1]; 15 g a.i./ha) | activity level (growth control rate) Echinochloa crus-galli ([2]; 15 g a.i./ha) | activity level (growth control rate) Abutilon theophrasti ([3]; 15 g a.i./ha) | activity level (growth control rate) Setaria viridis ([4]; 15 g a.i./ha) | activity level (growth control rate) Digitaria sanguinalis ([5]; 15 g a.i./ha) | activity level (growth control rate) Amaranthus retroflexus ([6]; 15 g a.i./ha)

CC1(C(=O)OCCF)CC(c2cc(-c3ncc(C(F)(F)F)cc3Cl)c(F)cc2Cl)=NO1 (stereo not drawn) [Compound 44]
10: activity level (growth control rate) Veronica polita ([1]; 15 g a.i./ha) | activity level (growth control rate) Echinochloa crus-galli ([2]; 15 g a.i./ha) | activity level (growth control rate) Abutilon theophrasti ([3]; 15 g a.i./ha) | activity level (growth control rate) Setaria viridis ([4]; 15 g a.i./ha) | activity level (growth control rate) Digitaria sanguinalis ([5]; 15 g a.i./ha) | activity level (growth control rate) Amaranthus retroflexus ([6]; 15 g a.i./ha)

COC/C(C)=N/OC(=O)C1(C)CC(c2cc(-c3ncc(C(F)(F)F)cc3Cl)c(F)cc2Cl)=NO1 (stereo not drawn) [Compound 68]
10: activity level (growth control rate) Veronica polita ([1]; 60 g a.i./ha) | activity level (growth control rate) Echinochloa crus-galli ([2]; 60 g a.i./ha) | activity level (growth control rate) Abutilon theophrasti ([3]; 60 g a.i./ha) | activity level (growth control rate) Setaria viridis ([4]; 60 g a.i./ha) | activity level (growth control rate) Digitaria sanguinalis ([5]; 60 g a.i./ha) | activity level (growth control rate) Amaranthus retroflexus ([6]; 60 g a.i./ha)

CC1(C(=O)ON=C2CCCC2)CC(c2cc(-c3ncc(C(F)(F)F)cc3Cl)c(F)cc2Cl)=NO1 (stereo not drawn) [Compound 74]
10: activity level (growth control rate) Veronica polita ([1]; 60 g a.i./ha) | activity level (growth control rate) Echinochloa crus-galli ([2]; 60 g a.i./ha) | activity level (growth control rate) Abutilon theophrasti ([3]; 60 g a.i./ha) | activity level (growth control rate) Setaria viridis ([4]; 60 g a.i./ha) | activity level (growth control rate) Digitaria sanguinalis ([5]; 60 g a.i./ha) | activity level (growth control rate) Amaranthus retroflexus ([6]; 60 g a.i./ha)
